Assay results taken from PubChem BioAssay (NCI).
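1) Cells in 96-well plates. 2) Compound, 48 h, 5 concentrations. 3) Linear interpolation between surrounding doses. 4) Unreached endpoint = highest concentration. GI50 is the concentration that inhibits growth by half. TGI: total growth inhibition.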

Each molecule was assayed on OVCAR-8 ovarian (assay: NCI-60 cell line screen, 48 h).
In the case of `COC(=O)c1ccc2c(c1)nc(NC(=O)c1ccccc1)n2CCCc1ccccc1`, the GI50 is reported as 4.79 µM and the TGI is reported as greater than 100 µM. `Cc1ccc(S(=O)(=O)Nc2ccccc2C=O)cc1` showed a TGI of 34.1 µM. With `O=C(O)COc1ccc2c(=O)c3sc4c(=O)c5ccccc5c(=O)c4c3c(=O)c2c1` the GI50 was 24.8 µM and the TGI was 73.6 µM. Molecule `Cc1ccc(S(=O)(=O)N(C=O)N=C2CCN(Cc3ccccc3)CC2)cc1` has a TGI greater than 100 µM. `O=C(Nc1ccc2ncccc2c1)Nc1ccc2ncccc2c1` gave a TGI greater than 100 µM. With `CC1(C)S[C@@H]2[C@H](NC(=O)C3(N)CCCCC3)C(=O)N2[C@H]1C(=O)O` the TGI was greater than 100 µM. For `CC1(C)N=C(N)N=C(N)N1c1ccc(CCCCc2ccc(Cl)cc2S(=O)(=O)F)c(Cl)c1`, the GI50 was 0.499 µM and the TGI was 16.8 µM. `O=C(Nc1ccc(Nc2ccncc2)cc1)c1ccc([N+](=O)[O-])cc1` gave a GI50 of 8.44 µM and a TGI of 32.6 µM. `C(=NCCN1CCOCC1)=NC1CCCCC1` gave a TGI greater than 100 µM. `COc1ccccc1/C=N\N/C(N)=N\N=C\c1ccccc1OC` gave a GI50 of 0.301 µM and a TGI of 17.5 µM. `CC[As](CC)SC[C@H](C)C(=O)N1CCC[C@H]1C(=O)O` showed a GI50 of 0.123 µM and a TGI of 0.472 µM.

What follows are molecules tested on SF-539 CNS (assay: NCI-60 cell line screen, 48 h).
Molecule `Nc1ccc([N+](=O)[O-])cc1N=C/C=C/c1ccccc1` has a GI50 of 21.7 µM and a TGI greater than 100 µM. Molecule `COc1cccc(C2CC(C)(O)Oc3cc4c(cc32)OCO4)c1O` (configuration not stated) has a TGI of 38.5 µM. With `CCN(CC)CCCN1CCc2c([nH]c3ccccc23)C1c1cccnc1` (configuration not stated) the TGI was greater than 100 µM. Work on `CNCc1ccccc1-c1csc([C@@H](C)Nc2nc(C)nc3cc(OC)c(OC)cc23)c1` yielded a GI50 of 1.5 µM and a TGI of 2.94 µM. Work on `Nc1nc(Cl)cc(NCCCCCCCCNc2cc(Cl)nc(N)n2)n1` yielded a TGI greater than 100 µM. `Cn1cc(C2=C(c3ccc(N)cc3)C(=O)NC2=O)c2ccccc21` showed a GI50 of 9.02 µM and a TGI greater than 25 µM. `Cc1cc(Cl)cc(OCCn2cc(F)cn2)c1-c1nc(N)nc2c1CN(C(=O)NCC(C)(F)F)C2` was tested, and the GI50 was 0.181 µM and the TGI was greater than 100 µM. `CCN(CC)CCC(CNc1ccnc2cc(Cl)ccc12)c1ccc(Cl)cc1` (configuration not stated) gave a GI50 of 1.25 µM and a TGI of 2.77 µM. `COc1cccc(F)c1C(=O)c1cnc(NC2CCN(S(C)(=O)=O)CC2)nc1N` showed a GI50 of 3.68 µM and a TGI of 11.7 µM. Molecule `CCOC(=O)C(C#N)C1=CC(=O)C(=O)c2ccc(OC)cc21` (configuration not stated) has a TGI of 33.5 µM. For `COc1cc(OCc2cccc(-c3ccc(C(O)c4nccs4)cc3)c2C)cc(OC)c1C=O` (configuration not stated), the GI50 was 1.96 µM and the TGI was 4.83 µM. With `COC(=O)c1ccc2c(c1)nc(NC(=O)c1ccccc1)n2CCCc1ccccc1` the GI50 was 3.8 µM and the TGI was greater than 100 µM. `Cc1ccc(S(=O)(=O)Nc2ccccc2C=O)cc1` gave a TGI of 5.08 µM. With `O=C(O)COc1ccc2c(=O)c3sc4c(=O)c5ccccc5c(=O)c4c3c(=O)c2c1` the GI50 was 13.2 µM and the TGI was 26.1 µM. Molecule `Cc1ccc(S(=O)(=O)N(C=O)N=C2CCN(Cc3ccccc3)CC2)cc1` has a TGI greater than 100 µM. `O=C(Nc1ccc2ncccc2c1)Nc1ccc2ncccc2c1` showed a TGI greater than 100 µM. `CC1(C)S[C@@H]2[C@H](NC(=O)C3(N)CCCCC3)C(=O)N2[C@H]1C(=O)O` was tested, and the TGI was greater than 100 µM. `CC1(C)N=C(N)N=C(N)N1c1ccc(CCCCc2ccc(Cl)cc2S(=O)(=O)F)c(Cl)c1` gave a GI50 of 0.539 µM and a TGI of 6.76 µM. Molecule `O=C(Nc1ccc(Nc2ccncc2)cc1)c1ccc([N+](=O)[O-])cc1` has a GI50 of 3.58 µM and a TGI of 13.2 µM. Molecule `C(=NCCN1CCOCC1)=NC1CCCCC1` has a TGI greater than 100 µM. Work on `COc1ccccc1/C=N\N/C(N)=N\N=C\c1ccccc1OC` yielded a GI50 of 0.264 µM and a TGI of 1.02 µM. For `CC[As](CC)SC[C@H](C)C(=O)N1CCC[C@H]1C(=O)O`, the GI50 was 0.0291 µM and the TGI was 0.136 µM.

What follows are molecules tested on OVCAR-4 ovarian (assay: NCI-60 cell line screen, 48 h).
Molecule `Nc1ccc([N+](=O)[O-])cc1N=C/C=C/c1ccccc1` has a GI50 of 11.2 µM and a TGI of 90.2 µM. `COc1cccc(C2CC(C)(O)Oc3cc4c(cc32)OCO4)c1O` (configuration not stated) gave a TGI greater than 100 µM. Work on `CCN(CC)CCCN1CCc2c([nH]c3ccccc23)C1c1cccnc1` (configuration not stated) yielded a TGI greater than 100 µM. In the case of `CNCc1ccccc1-c1csc([C@@H](C)Nc2nc(C)nc3cc(OC)c(OC)cc23)c1`, the GI50 is reported as 2.4 µM and the TGI is reported as 10.7 µM. With `Nc1nc(Cl)cc(NCCCCCCCCNc2cc(Cl)nc(N)n2)n1` the TGI was greater than 100 µM. Molecule `Cn1cc(C2=C(c3ccc(N)cc3)C(=O)NC2=O)c2ccccc21` has a GI50 greater than 25 µM and a TGI greater than 25 µM. In the case of `Cc1cc(Cl)cc(OCCn2cc(F)cn2)c1-c1nc(N)nc2c1CN(C(=O)NCC(C)(F)F)C2`, the GI50 is reported as greater than 100 µM and the TGI is reported as greater than 100 µM. `CCN(CC)CCC(CNc1ccnc2cc(Cl)ccc12)c1ccc(Cl)cc1` (configuration not stated) gave a GI50 of 0.764 µM and a TGI of 4.32 µM. In the case of `COc1cccc(F)c1C(=O)c1cnc(NC2CCN(S(C)(=O)=O)CC2)nc1N`, the GI50 is reported as 5.61 µM and the TGI is reported as greater than 25 µM. `CCOC(=O)C(C#N)C1=CC(=O)C(=O)c2ccc(OC)cc21` (configuration not stated) gave a TGI of 33.7 µM. Molecule `COc1cc(OCc2cccc(-c3ccc(C(O)c4nccs4)cc3)c2C)cc(OC)c1C=O` (configuration not stated) has a GI50 of 0.597 µM and a TGI of 6.35 µM. `COC(=O)c1ccc2c(c1)nc(NC(=O)c1ccccc1)n2CCCc1ccccc1` was tested, and the GI50 was 2.93 µM and the TGI was greater than 100 µM. Work on `Cc1ccc(S(=O)(=O)Nc2ccccc2C=O)cc1` yielded a TGI greater than 100 µM. Molecule `O=C(O)COc1ccc2c(=O)c3sc4c(=O)c5ccccc5c(=O)c4c3c(=O)c2c1` has a GI50 of 14.1 µM and a TGI of 27.3 µM. `Cc1ccc(S(=O)(=O)N(C=O)N=C2CCN(Cc3ccccc3)CC2)cc1` was tested, and the TGI was greater than 100 µM. `O=C(Nc1ccc2ncccc2c1)Nc1ccc2ncccc2c1` was tested, and the TGI was greater than 100 µM. `CC1(C)S[C@@H]2[C@H](NC(=O)C3(N)CCCCC3)C(=O)N2[C@H]1C(=O)O` showed a TGI greater than 100 µM. In the case of `CC1(C)N=C(N)N=C(N)N1c1ccc(CCCCc2ccc(Cl)cc2S(=O)(=O)F)c(Cl)c1`, the GI50 is reported as 3.11 µM and the TGI is reported as 19.2 µM. `O=C(Nc1ccc(Nc2ccncc2)cc1)c1ccc([N+](=O)[O-])cc1` was tested, and the GI50 was 5.37 µM and the TGI was 27.4 µM. With `C(=NCCN1CCOCC1)=NC1CCCCC1` the TGI was greater than 100 µM. Molecule `COc1ccccc1/C=N\N/C(N)=N\N=C\c1ccccc1OC` has a GI50 of 1.05 µM and a TGI greater than 100 µM. `CC[As](CC)SC[C@H](C)C(=O)N1CCC[C@H]1C(=O)O` gave a GI50 of 0.334 µM and a TGI of 1.13 µM.
